Experimental data from US20210393791A1, “COMBINATION TREATMENT WITH ANTI-CD123 ANTIBODY DRUG CONJUGATE AND PARP INHIBITOR” (Health Research, Inc., priority 2018, published 2021).

What was measured:
[1] = tested on: primary CD123+ AML cells from patients with relapsed/refractory disease; assay: Short-term culture of primary relapsed/refractory AML patient samples; format: cell-based, human; conditions: single agent, in vitro
Method: (§1) CD123 expression on human AML cell lines (HEL, HL60, MV411, Molm13, EOL-1, THP-1, and Kasumi-1) was quantified by flow cytometry using QuantriBrite beads. AML cells were continuously cultured for 72-96 hours with varying doses of IMGN632 (range 100 pM-100 nM) and specific PARP inhibitors (range 100 pM-15 μM) alone and in combination. Cell viability was measured using a WST-8 colorimetric assay. Primary clinically annotated CD123+AML cells from patients with relapsed/refractory disease were obtained under IRB-approved protocols from the Roswell Park (Buffalo, N.Y.) Hematologic Procurement Shared Resource and cultured short-term in the presence of multiple cytokines plus IMGN632+/−PARP inhibitors. Apoptosis (Annexin V/PI), cell cycle, and DNA damage (H2AX) were evaluated by flow cytometry. Additive vs. synergistic effects were determined by combination indices using Compusyn software. PARP trapping was evaluated by Western blot analysis in nuclear lysates obtained from IMGN632+/−PARP inhibitors treated AML cells.

preclinical AML models = conditions: Portwood S et al, ASH 2016; cited from earlier work
human AML cell lines = assay: AML cell line viability, WST-8 colorimetric assay; format: cell-based; conditions: 120 h, continuous single agent 5-day treatment, read-out: IC50, in vitro inhibition of AML cell line growth
Method: as §1, with “AML cells were continuously cultured for 72-96 hours with varying doses of IMGN632 (range 100 pM-100 nM) and specific PARP inhibitors (range 100 pM-15 μM) alone and in combination.” left out

Compound	activity against primary relapsed/refractory AML patient samples [1]	effect on activity of the CD33-targeted ADC IMGN779 (preclinical AML models)	IC50 (human AML cell lines) [µM]
IMGN632	single agent activity	–	–
O=C(c1cc(Cc2n[nH]c(=O)c3ccccc23)ccc1F)N1CCN(C(=O)C2CC2)CC1 [olaparib]	single agent activity	synergistically enhance	–
Cn1ncnc1[C@H]1c2n[nH]c(=O)c3cc(F)cc(c23)N[C@@H]1c1ccc(F)cc1 [talazoparib]	single agent activity	–	0.36
C[C@]1(c2nc3c(C(N)=O)cccc3[nH]2)CCCN1 [veliparib]	–	–	78
